Measured values as given in patent US5506217A, “Phosphonates as anti-cancer agents” (The University of British Columbia, priority 1994, dated 1996).

How the values were obtained:
[1] = test system: L1210 (B-cell lymphoma) cells; test: survival of CD1 mice injected with L1210 lymphoma cells; format: in vivo; conditions: 10 mg/kg per day IM
Procedure: The effects of phosphonates in a mouse model of lymphoma were also studied. Mice (CD 1) were injected with 1×10^6 L1210 (B-cell lymphoma) cells intraperitoneally. In one group the mice received the phosphonate compound of the following formula at 10 mg/kg per day intramuscularly, while a second group of mice received no treatment: [drawing 18]

[2] = test system: JRT3T3, a human T-cell lymphoma; test: colonogenic cell survival assay; format: cell-based; conditions: 120 h, read-out: Colonies formed after 5-days (% of control)
Procedure: (§1) Inhibition of colony formation in soft agar medium (colonogenic cell survival assay) is a more rigorous and direct measurement of cell kill or growth inhibition, and reflects the anti-cancer activity of the test compound. Briefly, tumor cells were cultured in petri dishes in methylcellulose, with or without a phosphonate test compound, and the number of colonies formed during a 5-day incubation period were counted.
(§2) The anti-cancer activity of the phosphonate of the following formula: [drawing 16] against human leukemia and lymphoma was also studied using the colonogenic cell survival assay. DHL4, a human B cell lymphoma; HeL, a human erythroid leukemia: JRT3T3, a human T-cell lymphoma; and KG 1α, a human mycloid leukemia, were evaluated for their sensitivity to the cytotoxic activity of the phosphonate of the above formula (compound VIII).

[3] = test system: KG1α, a human myeloid leukemia; test: colonogenic cell survival assay; format: cell-based; conditions: KG-1a, 120 h, read-out: Colonies formed after 5-days (% of control)
Procedure: as §1, §2

[4] = test system: DHL4, a human B cell lymphoma; test: colonogenic cell survival assay; format: cell-based; conditions: 120 h, read-out: Colonies formed after 5-days (% of control)
Procedure: as §1, §2

[5] = test system: human colorectal cell line (HT-29); test: HT-29 tumor growth in nude mice; format: in vivo; conditions: orally once a day, 5 mg/Kg body weight; HT-29 subcutaneous in nude mice
Procedure: Studies were also performed with nude mice injected with the human colorectal cell line (HT-29) subcutaneously.

CCCCCCCCCCCCCCCCOCC(CCP(=O)([O-])OCC[N+](C)(C)C)OC (stereo not shown) [compound VIII]
% Survival ([1]; day 0 after injection of L1210 cells): 100% | % Survival ([1]; day 7 after injection of L1210 cells): 100% | % Survival ([1]; day 8 after injection of L1210 cells): 100% | % Survival ([1]; day 19 after injection of L1210 cells): 100% | % Survival ([1]; day 21 after injection of L1210 cells): 100% | deaths among treated animals (in words) ([1]; up to 21 days of observation): None of the phosphonate-treated (compound VIII) animals died | activity at 1.25 µM ([2]; 1.25 μM): 87 ± 6% | activity at 2.5 µM ([2]; 2.5 μM): 65 ± 7% | activity at 5 µM ([2]; 5 μM): 34 ± 5% | activity at 10 µM ([2]; 10 μM): 20 ± 3% | activity at 20 µM ([2]; 20 μM): 8 ± 2% | activity at 40 µM ([2]; 40 μM): 3 ± 1% | activity at 1.25 µM ([3]; 1.25 μM): 78 ± 8% | activity at 2.5 µM ([3]; 2.5 μM): 56 ± 6% | activity at 5 µM ([3]; 5 μM): 41 ± 4% | activity at 10 µM ([3]; 10 μM): 15 ± 3% | activity at 20 µM ([3]; 20 μM): 7 ± 1% | activity at 40 µM ([3]; 40 μM): 4 ± 1% | activity at 1.25 µM ([4]; 1.25 μM): 76 ± 7% | activity at 2.5 µM ([4]; 2.5 μM): 61 ± 5% | activity at 5 µM ([4]; 5 μM): 42 ± 6% | activity at 10 µM ([4]; 10 μM): 18 ± 4% | activity at 20 µM ([4]; 20 μM): 5 ± 1% | activity at 40 µM ([4]; 40 μM): 0% | retardation of tumor growth [5]: 30-40%
